In ChEMBL document CHEMBL3272349, “Quantitative structure-activity relationships of antimalarial and dihydrofolate reductase inhibition by quinazolines and 5-substituted benzyl-2,4-diaminopyrimidines” (J Med Chem, 1977):

Assays:
Plasmodium berghei [1] = test: Antimalarial activity against Plasmodium berghei infected in po dosed mouse assessed as suppression of parasitemia; assay type: functional
Plasmodium berghei [2] = test: Antimalarial activity against Plasmodium berghei infected mouse assessed as suppression of parasitemia administered through diet for 6 days; assay type: functional
Plasmodium berghei [3] = test: Antimalarial activity against Plasmodium berghei infected in po dosed mouse assessed as suppression of parasitemia administered for 6 days; assay type: functional
[4] = target: T1, Dihydrofolate reductase (Enterococcus faecium) (UniProt P00380)
T1 sequence (whole entry): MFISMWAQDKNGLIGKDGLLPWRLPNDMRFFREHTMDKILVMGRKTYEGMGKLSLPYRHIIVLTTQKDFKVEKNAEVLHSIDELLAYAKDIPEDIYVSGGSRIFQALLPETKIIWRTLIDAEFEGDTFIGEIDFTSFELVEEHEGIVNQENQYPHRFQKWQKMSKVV
Description: Inhibition of Streptococcus faecium dihydrofolate reductase using dihydrofolate as substrate

| SMILES | log(1/I50) [4] | other results |
| --- | --- | --- |
| Nc1nc(N)c2cc(N(C=O)Cc3ccc(Cl)c(Cl)c3)ccc2n1 | – | log(1/SD90) (Plasmodium berghei [1]): 5.24 |
| CC(c1ccc(Cl)c(Cl)c1)N(C)c1ccc2nc(N)nc(N)c2c1 (stereo not given) | – | log(1/SD90) (Plasmodium berghei [2]): 5.6 |
| Nc1nc(N)c2cc(Oc3ccc4cc(Br)ccc4c3)ccc2n1 | – | log(1/SD90) (Plasmodium berghei [3]): 4.09 |
| Nc1nc(N)c2cc(Sc3ccc(Cl)c(Cl)c3)ccc2n1 | 8.24 | – |
| Nc1nc(N)c2cc(NCc3ccc4ccccc4c3Cl)ccc2n1 | – | log(1/SD90) (Plasmodium berghei [2]): 4.59 |
| COc1cccc(CNc2ccc3nc(N)nc(N)c3c2)c1 | – | log(1/SD90) (Plasmodium berghei [2]): 4.15 |
| Nc1nc(N)c2cc([S+]([O-])c3ccc4ccccc4c3)ccc2n1 (stereo not given) | 8.7 | – |
| Nc1nc(O)nc2ccc(Sc3ccc4ccccc4c3)cc12 | 4.34 | – |
| CN(Cc1ccccc1)c1ccc2nc(N)nc(N)c2c1 | – | log(1/SD90) (Plasmodium berghei [2]): 6.15 |
| Nc1nc(N)c2cc(Oc3ccc(Cl)c4ccccc34)ccc2n1 | – | log(1/SD90) (Plasmodium berghei [3]): 3.57 |
| Nc1nc(O)c2cc([S+]([O-])c3ccc4ccccc4c3)ccc2n1 (stereo not given) | 5.28 | – |
| Nc1nc(N)c2c(Cl)c(CNc3ccc(C(=O)O)cc3)ccc2n1 | 8.27 | – |
| Nc1nc(N)c2cc(CN(C=O)c3ccc(C(=O)NC(CCC(=O)O)C(=O)O)cc3)ccc2n1 (stereo not given) | 9 | – |
| Nc1nc(N)c2cc(Oc3ccccc3)ccc2n1 | – | log(1/SD90) (Plasmodium berghei [3]): 4.43 |
| CCCCOC(=O)c1ccc(NCc2ccc3nc(N)nc(N)c3c2C)cc1 | 8.15 | – |
| Nc1nc(O)c2cc(CN(C=O)c3ccc(C(=O)NC(CCC(=O)O)C(=O)O)cc3)ccc2n1 (stereo not given) | 6.52 | – |
| CCN(Cc1cccc2ccccc12)c1ccc2nc(N)nc(N)c2c1 | – | log(1/SD90) (Plasmodium berghei [2]): 5.97 |
| CCOC(=O)c1ccc(CNc2ccc3nc(N)nc(O)c3c2C)cc1 | 4.52 | – |
| Nc1nc(N)c2cc(NCc3ccccc3[N+](=O)[O-])ccc2n1 | – | log(1/SD90) (Plasmodium berghei [2]): 3.26 |
| CCCCOC(=O)c1ccc(NCc2ccc3nc(N)nc(N)c3c2)cc1 | 7.52 | – |
| CCCCCCCCN(Cc1ccc(Cl)cc1)c1ccc2nc(N)nc(N)c2c1 | – | log(1/SD90) (Plasmodium berghei [2]): 4.08 |
| Sc1nc(S)c2cc(Sc3ccc4ccccc4c3)ccc2n1 | 3.65 | – |
| Nc1nc(N)c2cc(Oc3cc(Cl)c(Cl)cc3Cl)ccc2n1 | – | log(1/SD90) (Plasmodium berghei [3]): 4.57 |
| Cc1c(N(Cc2ccc(Cl)c(Cl)c2)N=O)ccc2nc(N)nc(N)c12 | – | log(1/SD90) (Plasmodium berghei [1]): 5.15 |
| CCOC(=O)CCC(NC(=O)c1ccc(NCc2ccc3nc(N)nc(N)c3c2)cc1)C(=O)OCC (stereo not given) | 7.7 | – |
| Nc1ncnc2ccc([S+]([O-])c3ccc4ccccc4c3)cc12 (stereo not given) | 4.58 | – |
| Nc1nc(N)c2cc(OCc3ccc(Cl)cc3)ccc2n1 | – | log(1/SD90) (Plasmodium berghei [3]): 4.06 |
| Nc1nc(S)c2cc(S(=O)(=O)c3ccc4ccccc4c3)ccc2n1 | 5.17 | – |

| SMILES | log(1/I50) [4] | other results |
| --- | --- | --- |
| Nc1nc(N)c2cc(NCc3ccc(Cl)s3)ccc2n1 | – | log(1/SD90) (Plasmodium berghei [2]): 4.49 |
| Nc1nc(N)c2cc(NCCc3ccc(Cl)cc3)ccc2n1 | – | log(1/SD90) (Plasmodium berghei [2]): 4.24 |
| CC(Nc1ccc2nc(N)nc(N)c2c1)c1ccc(Cl)c(Cl)c1 (stereo not given) | – | log(1/SD90) (Plasmodium berghei [2]): 4.6 |
| O=c1[nH]c(=O)c2cc(Sc3ccc4ccccc4c3)ccc2[nH]1 | 4.32 | – |
| CCCN(Cc1ccc(Cl)cc1)c1ccc2nc(N)nc(N)c2c1 | – | log(1/SD90) (Plasmodium berghei [2]): 6.3 |
| Nc1nc(N)c2c(S(=O)(=O)c3ccc4ccccc4c3)cccc2n1 | 4.05 | – |
| Nc1nc(N)c2c(/C=C\c3ccc4ccccc4c3)cccc2n1 | 7.43 | – |
| Nc1nc(N)c2cc(Sc3cccc(C(F)(F)F)c3)ccc2n1 | 9.15 | – |
| CCOC(=O)c1ccc(CNc2ccc3nc(N)nc(N)c3c2Cl)cc1 | 8.2 | – |
| CCN(Cc1ccc(Cl)cc1)c1ccc2nc(N)nc(N)c2c1 | – | log(1/SD90) (Plasmodium berghei [2]): 6.4 |
| Nc1ncnc2ccc(Sc3ccc4ccccc4c3)cc12 | 4.07 | – |
| Nc1nc(N)c2cc(CNc3ccc(Cl)c(Cl)c3)ccc2n1 | – | log(1/SD90) (Plasmodium berghei [1]): 5.56 |
| CCOC(=O)c1ccc(NCc2ccc3nc(N)nc(O)c3c2)cc1 | 7.07 | – |
| CCOC(=O)c1ccc(NCc2ccc3nc(N)nc(N)c3c2Cl)cc1 | 8.64 | – |
| Cc1c(NCc2ccccc2)ccc2nc(N)nc(N)c12 | – | log(1/SD90) (Plasmodium berghei [2]): 5.33 |
| Nc1nc(N)c2c(n1)CCN(Cc1ccc(Cl)cc1)C2 | – | log(1/SD90) (Plasmodium berghei [1]): 4.14 |
| CCOC(=O)c1ccc(NCc2ccc3nc(N)nc(N)c3c2)cc1 | 7.68 | – |
| Nc1nc(S)nc2ccc(Sc3ccc4ccccc4c3)cc12 | 4.69 | – |
| Cc1c(CN(N=O)c2ccc(Cl)c(Cl)c2)ccc2nc(N)nc(N)c12 | – | log(1/SD90) (Plasmodium berghei [1]): 5.52 |
| CCOC(=O)c1ccc(CNc2ccc3nc(N)nc(O)c3c2)cc1 | 4.55 | – |
| CCCN(Cc1ccc(Cl)c(Cl)c1)c1ccc2nc(N)nc(N)c2c1 | – | log(1/SD90) (Plasmodium berghei [2]): 6.1 |
| Nc1nc(N)c2c(n1)CCN(Cc1cccnc1)C2 | – | log(1/SD90) (Plasmodium berghei [1]): 3.88 |
| Nc1nc(N)c2c([S+]([O-])c3ccc(Cl)c(Cl)c3)cccc2n1 (stereo not given) | 4.65 | – |
| Nc1nc(N)c2cc(S(=O)(=O)c3ccc4ccccc4c3)ccc2n1 | 8.4 | – |
| CCOC(=O)c1ccc(CNc2ccc3nc(N)nc(O)c3c2Cl)cc1 | 6.09 | – |
| Nc1nc(N)c2c(n1)CCN(Cc1ccncc1)C2 | – | log(1/SD90) (Plasmodium berghei [1]): 3.31 |
| Nc1nc(N)c2c(Cl)c(NCc3ccc(Cl)c(Cl)c3)ccc2n1 | – | log(1/SD90) (Plasmodium berghei [2]): 5.72 |
